Results on 34 compounds are retold here after article PMC9697826 (Pharmaceuticals, 2022).

In one series the target is T1, FABP4 (Homo sapiens, UniProt P15090).
T1 construct: purchased Cayman Chemical 10010231
The experiment in a line: FABP4 Inhibitor/Ligand Screening Assay Kit: displacement of a fluorescent detection reagent. The settings on record: for IC50: displacement of detection reagent from FABP4, compounds diluted in PBS pH 7.4, fluorescence em 470 nm, ex 370 nm; for FABP4 inhibitory activity, IC50 in words: summary statement in conclusions. It is filed as binding.

The subject of a further series is colon cancer cells. Also on record: method as in PMID 33088219. As to conditions: treatment with the FABP4 inhibitor; cited from earlier work.

T1 sequence (P15090 whole entry): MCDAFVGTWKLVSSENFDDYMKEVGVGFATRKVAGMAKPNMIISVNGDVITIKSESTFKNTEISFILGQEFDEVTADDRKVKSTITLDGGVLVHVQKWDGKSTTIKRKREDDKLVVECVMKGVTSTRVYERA
Experimental for FABP4: FABP4 inhibitory activity was assessed by measuring the decrease in fluorescent signal of a detection reagent (DR) when displaced by a strong FABP4 ligand. […] Therefore, any effective ligand of the protein, which binds to the same binding pocket and can displace the DR, determines a reduction in the fluorescence read-out. The new molecular series was screened in a two-step procedure. Firstly, a single concentration of 5 µM was used to gain an estimation of the overall inhibitory effect of all the molecules.
To analyze the inhibitory activity of FABP4 ligands, a displacement assay was utilized as described by the Cayman’s instruction, FABP4 Inhibitor/Ligand Screening Assay Kit, Item 10,010,231 (see Supplementary Materials for additional details). The samples of compounds for activity determination were prepared as a stock solution (1 mM) in DMSO. On the day of activity assay, the compounds were all diluted in phosphate buffer solution (PBS, pH 7.4) to different concentrations (100, 50, 10, 5, 2, 1, and 0 µM). Appropriate concentrations of DMSO in PBS were used as control. The detection reagent (FABP Assay Detection Reagent, Item 10010376) was used as provided by the Cayman’s kit. The diluted Detection Reagent probe was mixed with FABP4 protein present in the kit and incubated for 10 min at room temperature. Compounds were then added and equilibrated for another 10 min. Lastly, the fluorescence signal was recorded at 470 nm (i.e., emission, with the excitation fixed at 370 nm) with a CytoFluor® Series 4000 Fluorescence Multi-Well Plate Reader.

Regarding `Cc1cc(N)c(=O)n(-c2ccccc2)n1` [Compound 54], the IC50 at FABP4 is > 50 µM.
The compound `CSc1nnc(-c2ccccc2)cc1N` [Compound 27, 3-Methylsulfanyl-6-phenyl-pyridazin-4-ylamine] gave a melting point of 168 to 170 °C. Further, on FABP4, the IC50 is > 50 µM.
Take `CCc1c(-c2ccccc2)c(-c2ccccc2)nn1-c1ccccc1-c1cccc(OCC(=O)O)c1` [BMS309403]: the “migration and invasion of colon cancer cells” value with colon cancer cells was “weakened”.
Consider `CCn1nc(-c2ccccc2)cc(NC(N)=O)c1=O` [Compound 25c, (2-Ethyl-3-oxo-6-phenyl-2,3-dihydro-pyridazin-4-yl)urea], for which the melting point was 270 to 271 °C. Further, at FABP4, the IC50 is > 50 µM.
In turn, `Cn1nc(-c2ccccn2)cc(N)c1=O` [Compound 48, 4-Amino-2-methyl-6-pyridin-2-yl-pyridazin-3(2H)-one] had a melting point of 294 to 295 °C.
`Cn1nc(-c2ccccc2)cc(NC(N)=O)c1=O` [Compound 25a, (2-Methyl-3-oxo-6-phenyl-2,3-dihydro-pyridazin-4-yl)urea]: the melting point is > 300 °C. Further, on FABP4, the IC50 worked out at 2.97 ± 0.26 µM and the “FABP4 inhibitory activity, IC50 in words” value is “low micromolar range”.
For the compound `Cn1nc(-c2ccc(N)cc2)cc(N)c1=O` [Compound 42b, 4-Amino-6-(4-aminophenyl)-2-methylpyridazin-3(2H)-one], the melting point lay within 208 to 209 °C.
The same measure, in the same setting: under `CC(C)c1cc(N)c(=O)[nH]n1` [Compound 37c, 4-Amino-6-isopropylpyridazin-3(2H)-one] stands 246 to 248 °C; under `CC(C)c1cc(NC(N)=O)c(=O)n(C)n1` [Compound 39b, (6-Isopropyl-2-methyl-3-oxo-2,3-dihydropyridazin-4-yl)urea], 248 to 251 °C.
As to `Cn1nc(Cc2ccccc2)cc(N)c1=O` [Compound 38d, 4-Amino-6-benzyl-2-methylpyridazin-3(2H)-one], the melting point was in the range of 104 to 108 °C.
`CC(C)C(=O)Nc1cc(-c2ccccc2)nn(C)c1=O` [Compound 29c, N-(2-Methyl-3-oxo-6-phenyl-2,3-dihydro-pyridazin-4-yl)isobutyramide] returned a melting point of 146 to 148 °C.
On to `CCCNC(=O)c1c(-c2ccccc2)n[nH]c(=O)c1N` [Compound 4b, 5-Amino-6-oxo-3-phenyl-1,6-dihydropyridazine-4-carboxylic acid propylamide], for which the melting point fell in the range of 228 to 230 °C. For the same compound, on FABP4, the IC50 turned out to be 8.27 ± 0.2 µM and the “FABP4 inhibitory activity, IC50 in words” value is “low micromolar range”.
For the compound `NC(=O)c1c(-c2ccccc2)n[nH]c(=O)c1N` [Compound 6, 5-Amino-6-oxo-3-phenyl-1,6-dihydropyridazine-4-carboxylic acid amide], the melting point is > 300 °C.
Compound `CCC(=O)Nc1cc(-c2ccccc2)nn(C)c1=O` [Compound 29b, N-(2-Methyl-3-oxo-6-phenyl-2,3-dihydro-pyridazin-4-yl)propionamide] had a melting point of 210 to 211 °C.
On the same count and under the same terms, under `NC(=O)Nc1cc(-c2ccccc2)n[nH]c1=O` [Compound 28, (3-Oxo-6-phenyl-2,3-dihydro-pyridazin-4-yl)urea] stands > 300 °C.
As to `CC(C)n1nc(-c2ccccc2)cc(N)c1=O` [Compound 24d, 4-Amino-2-isopropyl-6-phenylpyridazin-3(2H)-one], the melting point was 122 to 124 °C.
Same read-out and setting: in the case of `CCCNC(=O)c1c(-c2ccccc2)nn(CC)c(=O)c1N` [Compound 5b, 5-Amino-1-ethyl-6-oxo-3-phenyl-1,6-dihydro-pyridazine-4-carboxylic acid propylamide] it was 141 to 143 °C; in that of `Nc1cc(C2CCCCC2)n[nH]c1=O` [Compound 37b, 4-Amino-6-cyclohexylpyridazin-3(2H)-one], 284 to 287 °C.
Compound `Cn1nc(C2CCCCC2)cc(NC(N)=O)c1=O` [Compound 39a, (6-Cyclohexyl-2-methyl-3-oxo-2,3-dihydropyridazin-4-yl)urea] returned a melting point of 251 to 254 °C.
In turn, `Cc1cc(NC(N)=O)c(=O)n(-c2ccccc2)n1` [Compound 55, 1-(6-Methyl-3-oxo-2-phenyl-2,3-dihydropyridazin-4-yl)urea] showed a melting point of 288 to 290 °C. Besides, the IC50 on FABP4 was > 50 µM.
`Cn1nc(-c2ccccc2O)cc(N)c1=O` [Compound 42a, 4-Amino-6-(2-hydroxyphenyl)-2-methylpyridazin-3(2H)-one] registered a melting point of 212 to 213 °C.
The compound `CCCn1nc(-c2ccccc2)cc(NC(N)=O)c1=O` [Compound 25e, (3-Oxo-6-phenyl-2-propyl-2,3-dihydro-pyridazin-4-yl)urea] registered a melting point of 273 to 275 °C. Besides, on FABP4, the IC50 was > 50 µM.
Turning to `Cc1nn(-c2ccccc2)c(=O)c(N)c1C(N)=O` [Compound 16, 5-Amino-3-methyl-6-oxo-1-phenyl-1,6-dihydropyridazine-4-carboxylic acid amide], the melting point lay in the range of 247 to 249 °C.
Turning to `N#Cc1c(-c2ccccc2)nn(C2CCCCC2)c(=O)c1N` [Compound 22, 5-Amino-1-cyclohexyl-6-oxo-3-phenyl-1,6-dihydropyridazine-4-carbonitrile], the melting point lay in the range of 170 to 172 °C. Further, at FABP4, the IC50 was 15.2 ± 0.76 µM and the “FABP4 inhibitory activity, IC50 in words” value is listed as “low micromolar range”.
`Cn1nc(-c2ccccc2)cc(Nc2ccccc2C(N)=O)c1=O` [Compound 31b, 2-(2-Methyl-3-oxo-6-phenyl-2,3-dihydro-pyridazin-4-ylamino)benzamide] yielded a melting point of 140 to 142 °C.
On the same count and under the same terms, in the case of `CC(C)n1nc(-c2ccccc2)cc(NC(N)=O)c1=O` [Compound 25d, (2-Isopropyl-3-oxo-6-phenyl-2,3-dihydro-pyridazin-4-yl)urea] it was 260 to 263 °C.
In the case of `CC(=O)N1CCN(C(=O)c2ccc(Nc3cc(-c4ccccc4)nn(C)c3=O)cc2)CC1` [Compound 35, 4-[4-(4-Acetyl-piperazine-1-carbonyl)-phenylamino]-2-methyl-6-phenylpyridazin-3(2H)-one], the melting point was 213 to 215 °C. Moreover, the IC50 at FABP4 is > 50 µM.
With `Cn1nc(-c2ccccc2)cc(Nc2ccccc2C#N)c1=O` [Compound 30b, 2-(2-Methyl-3-oxo-6-phenyl-2,3-dihydro-pyridazin-4-ylamino)benzonitrile], at FABP4, the IC50 was found to be 23.2 ± 0.52 µM and the “FABP4 inhibitory activity, IC50 in words” value was “low micromolar range”.
Compound `Nc1cc(-c2ccccc2)nn(C2CCCCC2)c1=O` [Compound 24b, 4-Amino-2-cyclohexyl-6-phenylpyridazin-3(2H)-one] showed a melting point of 120 to 124 °C.
Still for that read-out and setting: in the case of `CC(=O)Nc1ccc(-c2cc(N)c(=O)n(C)n2)cc1` [Compound 44, N-[4-(5-Amino-1-methyl-6-oxo-1,6-dihydropyridazin-3-yl)-phenyl]-acetamide] it was 270 to 272 °C; in that of `CCCn1nc(-c2ccccc2)cc(N)c1=O` [Compound 24e, 4-Amino-6-phenyl-2-propylpyridazin-3(2H)-one], 79 to 81 °C; in that of `N#Cc1c(-c2ccccc2)n[nH]c(=O)c1N` [Compound 7, 5-Amino-6-oxo-3-phenyl-1,6-dihydropyridazine-4-carbonitrile], 287 to 289 °C.
On the same count and under the same terms, under `Cn1nc(-c2ccccc2)cc(Nc2cccc(C#N)c2)c1=O` [Compound 30a, 3-(2-Methyl-3-oxo-6-phenyl-2,3-dihydro-pyridazin-4-ylamino)benzonitrile] stands 234 to 235 °C; under `Cc1nn(-c2ccccc2)c(=O)c(N)c1-c1ccn[nH]1` [Compound 57, 4-Amino-6-methyl-2-phenyl-5-(1H-pyrazol-5-yl)pyridazin-3(2H)-one], 119 to 121 °C.
